Test results taken from US9963518B2, “Cyclic oligosaccharides for use in the treatment and prevention of bacterial infection” (priority 2011, dated 2018).
Values joined by “and” are separate entries in the source; they are usually repeats but may differ in a detail not shown here. Equal values may be shown once. Read-outs that look alike come from different tables or passages of the source.

Columns and labels:
E. coli strain E69 = test: Complement-mediated killing of bacteria in human serum; format: cell-based; conditions: for Complement-mediated killing of E69: 40% normal human serum, 1 h, 37° C.
Procedure: This assay measured the killing of bacteria by the compounds of the invention mediated by the human complement system found in serum (incubation time 1 h, RPMI 1640, 37° C.). 10^3 cells of E. coli strain E69 or CWG281 were cultured in 40% (v/v) normal human serum (NHS, 1 mL, TCS Biosciences, CR100) or deactivated human serum (DHS) in RPMI 1640 medium (Sigma Aldrich, R8758) in 1.5 mL tubes in the presence of different concentrations of am8γCD (compound 13) at 37° C. for 1 h or 4 h. DHS was generated by heating NHS at 56° C. for 30 min. For the one-hour experiment, a portion of each culture (50 μL) was then spread onto a freshly prepared LB-Agar plate; for the four-hour experiment, the culture was firstly diluted 100 times (0, 1, 10, 40 μM), 10 times (100 μM) or not diluted (300 μM and 1 mM), and then a portion of each resulting culture (50 μL) was then spread onto a freshly prepared LB-Agar plate. The plates were incubated at 37° C. for 10 h after which colonies were counted. The total colonies of each sample were calculated by colonies/plate multiplying by times of dilution. P values were calculated from a one-tailed Student's t-test.

Wza Y110G/K375C = Wza Y110G/K375C (Escherichia coli, UniProt Q9X4B7, K375C/Y110G); test: Single-channel electrical recording, blockers against mutant Wza Y110G/K375C; format: binding, E. coli
Procedure: The Wza pore was opened by replacing the tyrosines at position 110 that line the narrowest region of the lumen with glycine. To confirm that the currents observed indeed arose from the mutant pore, a cysteine was introduced in the α-helix barrel (Y110G/K375C) and would therefore yield a characteristic reversible blockade when derivatized with a suitable thiol-specific reagent.
The unitary conductance of the Y110G/K375C pore was determined as for wt-Wza, by measuring stepwise-insertion using the same technique referenced above. The mean open current of Y110G/K375C was determined to be +85±14.1 pA (+50 mV, n=31), corresponding to 1.70±0.28 nS (+50 mV, n=31) in conductance.
(§1) Thirteen commercial cyclodextrins (CDs) were tested for their ability to block WT-Wza and the mutant Y110G/K375C (Table 1) including, neutral, negatively charged or positively charged cyclodextrins. Testing was carried out using electrical channel recording in high salt buffer (2M KCl, 5 mM HEPES, 100 μM EDTA, 200 μM DTT) at pH 7.5.

mutant Wza ΔP106-A107 = mutant Wza ΔP106-A107 (Escherichia coli, UniProt Q9X4B7, DEL106-107); test: Single-channel electrical recording, mutant Wza ΔP106-A107; format: binding, E. coli; conditions: n = 3, read-out: Dissociation constant (Kd) with mutant Wza pore
WT Wza = WT Wza (Escherichia coli, UniProt Q9X4B7); test: Single-channel electrical recording, blockers against wt-Wza in planar lipid bilayers; format: binding, E. coli; conditions: 2M KCl, 5 mM HEPES, 100 μM EDTA, 200 μM DTT, pH 7.5
Procedure: The Wt Wza transporter was tested in single-channel recording, in accordance with the procedures of Naismith (Nature 2006, 444, 226-229) for its ability to form pores in planar lipid bilayers. Sequential insertions of channels in a single orientation were used to measure the conductance of a single channel because more than one channel could insert simultaneously during the first introduction, especially when protein molecules have not properly diffused yet. Repetition of experiments helped to verify conductance of a single channel. […] After collection of 37 insertions of wt Wza channel, the current of a single channel of wt Wza in 2 M KCl buffer was determined to be 1.89±0.01 pA (n=37) on average, corresponding to 18.9±0.1 pS (n=37) in conductance.
as §1

NC[C@H]1O[C@@H]2O[C@H]3[C@H](O)[C@@H](O)[C@@H](O[C@H]4[C@H](O)[C@@H](O)[C@@H](O[C@H]5[C@H](O)[C@@H](O)[C@@H](O[C@H]6[C@H](O)[C@@H](O)[C@@H](O[C@H]7[C@H](O)[C@@H](O)[C@@H](O[C@H]8[C@H](O)[C@@H](O)[C@@H](O[C@H]9[C@H](O)[C@@H](O)[C@@H](O[C@H]1[C@H](O)[C@H]2O)O[C@@H]9CN)O[C@@H]8CN)O[C@@H]7CN)O[C@@H]6CN)O[C@@H]5CN)O[C@@H]4CN)O[C@@H]3CN [No. 12, Octacis (6-amino-6-deoxy)-γ-cyclodextrin]
Complement-mediated killing of E69 (E. coli strain E69; 15 μM): 21%
Complement-mediated killing of E69 (E. coli strain E69; 100 μM): 51%
Complement-mediated killing of E69 (E. coli strain E69; 1 mM): 84%
Growth of E69 (E. coli strain E69; 1 mM, normal human serum, incubation 4 h): completely inhibited the growth
EC50 (E. coli strain E69; Escherichia coli, E69, normal human serum, incubation 4 h, n=3, read-out: Concentration required to kill half of the bacteria (EC50)): 3.2 ± 0.5 µM
Effect on survival of E69 in the absence of NHS (E. coli strain E69; compound alone at 100 μM or 1 mM, no normal human serum): no significant effect
Kd (Wza Y110G/K375C; Kd, interaction with mutant Wza, Y110G/K375C, +3 mV, n = 3, 2M KCl buffer pH 7.5): 12.3 µM and 12 µM
Interaction with mutant Wza (Wza Y110G/K375C; Y110G/K375C, 2M KCl, 5 mM HEPES, 100 μM EDTA, 200 μM DTT, pH 7.5): not observed^c
Binding strength relative to am7βCD (Wza Y110G/K375C; at different voltages): ≥ 10 times
Kd (mutant Wza ΔP106-A107; ΔP106-A107, 300 mM KCl, 5 mM HEPES, pH 7.5, +5 mV): 0.044 ± 0.025 µM
Kd (mutant Wza ΔP106-A107; ΔP106-A107, 2M KCl buffer pH 7.5, +3 mV): 7.8 ± 5.2 µM
Interaction with WT Wza (WT Wza): not observed
